Data from PubChem BioAssay AID1963835 (Molecular Pharmacology Branch, DTP, NCI, 2024).
“And” between values parts separate entries of the source, which are not always exact repeats. Equal entries are not always repeated.

Test system: 699152-130-R-J1-PDC complex spheroid viability
Experiment: Anticancer human tumor 699152-130-R-J1-PDC patient-derived pancreatic carcinoma cell line growth inhibition [POLQ]
Conditions: for viability, T/C: stronger effect = lower value
Experimental: Multicellular complex tumor spheroid response to Polymerase (POL) inhibitors (novobiocin, ART-558, RP6685) in combination with a variety of drugs and investigational agents in selected tumor cell lines
The POL inhibitors (novobiocin, ART-558, and RP6685) were evaluated both individually and in combination with standard of care and investigational anticancer small molecules within a complex spheroid model of solid tumors. . Complex spheroids include a stromal component modeled by human endothelial cells (HUVEC) and fibroblasts modeled by human mesenchymal stem cells (MSCs). The concentration ranges selected for each drug and investigational agent were based upon clinically achievable concentrations if the clinical Cmax of the agent was known.
Compounds. The drugs and investigational agents: novobiocin (NSC847541), ART-558 (NSC835418), RP-6685 (NSC848927), peposertib (NSC802822), ceralasertib (NSC780249), elimusertib (NSC800525), camonsertib (NSC841442), AZD-1390 (NSC803789), olaparib (NSC753686), talazoparib (NSC767125), rucaparib (NSC756644), sotorasib (NSC818433), MRTX-1133 (NSC836407), SN-38 (NSC673596), topotecan (NSC609699), epotoside (NSC141540), doxorubicin (NSC123127), gemcitabine (NSC613327), 5-fluorouracil (NSC19893), paclitaxel (NSC125973), vemurafenib (NSC761431), MSA-2 (NSC828583), SN-011 (NSC837082), adavosertib (NSC754352), prexasertib (NSC758257), carboplatin (NSC241240) and oxaliplatin (NSC266046), were obtained from the National Cancer Institute (NCI) Developmental Therapeutics Program Chemical Repository (21). The FDA-approved anticancer drug set is available from the Developmental Therapeutics Program at https://dtp.cancer.gov/organization/dscb/obtaining/. […] The stock solutions were prepared in dimethyl sulfoxide (DMSO, Sigma-Aldrich, St. Louis, MO, cat. D2650), except for the platinum compounds which were prepared in saline (Quality Biological, Gaithersburg, MD, cat. 114-055-101), at 800-fold the tested concentration and stored at -70 degrees C prior to their use. All drugs and investigational agents were tested over a range starting from a high concentration at or near the clinical Cmax and decreasing in half-log increments. If the clinical Cmax for an agent had not been determined, the highest concentration tested was 10 microM, except for SN-38, which was tested at a high concentration of 1 microM.
Cell Culture. All cells were maintained in an incubator at 37 degrees C and 5% CO2 with 95% humidity. The PDC lines were cultured according to standard operating procedures established by the NCI PDMR (https://pdmr.cancer.gov). Table 3 of the manuscript, lists the cell lines along with the number of the three cell types plated to form the mct-spheroids and media for tumor cell growth. After thawing, all PDC lines, except 997537-175-T-J1-PDC and 415267-285-R-J2-PDC, were cultured in Matrigel-coated flasks prepared with a working solution of 1X Ham's F-12 nutrient mix, without supplementation (Thermo Fisher Scientific, cat. 11765054), 100 U/mL penicillin-streptomycin (Thermo Fisher Scientific, cat. 15140122), and 2.5% Matrigel (Corning Inc., Corning, NY, cat. 354248) for the first three passages. The two PDC lines 997537-175-T-J1-PDC and 415267-285-R-J2-PDC were cultured on uncoated flasks. The 857933-349-R-J2-PDC line was cultured in 6C/Colon 1B media containing advanced DMEM/F-12 (Thermo Fisher Scientific, cat. 12634028), 10 mM HEPES (Thermo Fisher Scientific, cat. 15630080), 1X GlutaMAX supplement (Thermo Fisher Scientific, cat. 35050061), 0.1 mg/mL primocin (InvivoGen, San Diego, CA, cat. ant-pm-2), 10% defined fetal bovine serum, heat inactivated (HyClone Laboratories Inc., Logan, UT, cat. SH30070.03HI), 50% L-WRN conditioned media (ATCC, cat. CRL-3276), 1.25 mM N-Acetyl-L-cysteine (Sigma-Aldrich, cat. A9165), 10 mM nicotinamide (Sigma-Aldrich, cat. N0636), 1X B-27 supplement (Thermo Fisher Scientific, cat. 17504044), 1X N-2 supplement (Thermo Fisher Scientific, cat. […]

[1] = curve of first compound, second compound 0.0316 µM
[2] = curve of first compound, second compound 0.1 µM
[3] = curve of first compound, second compound 0.316 µM
[4] = curve of first compound, second compound 1 µM
[5] = curve of first compound, second compound 3.16 µM
[6] = curve of first compound, second compound 10 µM
[7] = second compound 0.0316 µM, first compound 0.0316 µM
[8] = second compound 0.0316 µM, first compound 0.1 µM
[9] = second compound 0.0316 µM, first compound 0.316 µM
[10] = second compound 0.0316 µM, first compound 1 µM
[11] = second compound 0.0316 µM, first compound 3.16 µM
[12] = second compound 0.0316 µM, first compound 10 µM
[13] = second compound 0.1 µM, first compound 0.0316 µM
[14] = second compound 0.1 µM, first compound 0.1 µM
[15] = second compound 0.1 µM, first compound 0.316 µM
[16] = second compound 0.1 µM, first compound 1 µM
[17] = second compound 0.1 µM, first compound 3.16 µM
[18] = second compound 0.1 µM, first compound 10 µM
[19] = second compound 0.316 µM, first compound 0.0316 µM
[20] = second compound 0.316 µM, first compound 0.1 µM
[21] = second compound 0.316 µM, first compound 0.316 µM
[22] = second compound 0.316 µM, first compound 1 µM
[23] = second compound 0.316 µM, first compound 3.16 µM
[24] = second compound 0.316 µM, first compound 10 µM
[25] = second compound 1 µM, first compound 0.0316 µM
[26] = second compound 1 µM, first compound 0.1 µM
[27] = second compound 1 µM, first compound 0.316 µM
[28] = second compound 1 µM, first compound 1 µM
[29] = second compound 1 µM, first compound 3.16 µM
[30] = second compound 1 µM, first compound 10 µM
[31] = second compound 3.16 µM, first compound 0.0316 µM
[32] = second compound 3.16 µM, first compound 0.1 µM
[33] = second compound 3.16 µM, first compound 0.316 µM
[34] = second compound 3.16 µM, first compound 1 µM
[35] = second compound 3.16 µM, first compound 3.16 µM
[36] = second compound 3.16 µM, first compound 10 µM
[37] = second compound 10 µM, first compound 0.0316 µM
[38] = second compound 10 µM, first compound 0.1 µM
[39] = second compound 10 µM, first compound 0.316 µM
[40] = second compound 10 µM, first compound 1 µM
[41] = second compound 10 µM, first compound 3.16 µM
[42] = second compound 10 µM, first compound 10 µM
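Further: spheroids exposed to agents for 7 days before viability reading.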
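Wherever viability, T/C is given: percent of DMSO vehicle control viability so 100% = vehicle and 0% = no viable signal.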

## CNCc1ccc(-c2[nH]c3cc(F)cc4c3c2CCNC4=O)cc1 + COC1C(OC(N)=O)C(O)C(Oc2ccc3c(O)c(NC(=O)c4ccc(O)c(CC=C(C)C)c4)c(=O)oc3c2C)OC1(C)C
[1]
  IC50: > 10 µM
[2]
  IC50: > 10 µM
[3]
  IC50: > 10 µM
[4]
  IC50: > 10 µM
[5]
  IC50: > 10 µM
[6]
  IC50: > 10 µM
[7]
  viability, T/C: 94.8%
[8]
  viability, T/C: 95.1%
[9]
  viability, T/C: 101%
[10]
  viability, T/C: 106%
[11]
  viability, T/C: 126%
[12]
  viability, T/C: 123%
[13]
  viability, T/C: 96.4%
[14]
  viability, T/C: 95.6%
[15]
  viability, T/C: 92.9%
[16]
  viability, T/C: 120%
[17]
  viability, T/C: 115%
[18]
  viability, T/C: 130%
[19]
  viability, T/C: 102%
[20]
  viability, T/C: 103%
[21]
  viability, T/C: 106%
[22]
  viability, T/C: 97.8%
[23]
  viability, T/C: 118%
[24]
  viability, T/C: 125%
[25]
  viability, T/C: 101%
[26]
  viability, T/C: 94.9%
[27]
  viability, T/C: 107%
[28]
  viability, T/C: 98%
[29]
  viability, T/C: 113%
[30]
  viability, T/C: 114%
[31]
  viability, T/C: 103%
[32]
  viability, T/C: 105%
[33]
  viability, T/C: 93.8%
[34]
  viability, T/C: 98.2%
[35]
  viability, T/C: 133%
[36]
  viability, T/C: 93.6%
[37]
  viability, T/C: 102%
[38]
  viability, T/C: 88.3%
[39]
  viability, T/C: 107%
[40]
  viability, T/C: 101%
[41]
  viability, T/C: 125%
[42]
  viability, T/C: 108%

## CCc1cc2c(N3CCc4c(cc(Cn5ccnc5)cc4-c4cn(C)nc4C(F)(F)F)C3=O)ccnc2c(OC)n1 + COC1C(OC(N)=O)C(O)C(Oc2ccc3c(O)c(NC(=O)c4ccc(O)c(CC=C(C)C)c4)c(=O)oc3c2C)OC1(C)C
[1]
  IC50: > 10 µM
[2]
  IC50: > 10 µM
[3]
  IC50: > 10 µM
[4]
  IC50: > 10 µM
[5]
  IC50: > 10 µM
[6]
  IC50: > 10 µM
[7]
  viability, T/C: 82.1%
[8]
  viability, T/C: 102%
[9]
  viability, T/C: 95.5%
[10]
  viability, T/C: 107%
[11]
  viability, T/C: 104%
[12]
  viability, T/C: 97.3%
[13]
  viability, T/C: 91.7%
[14]
  viability, T/C: 89.8%
[15]
  viability, T/C: 87.4%
[16]
  viability, T/C: 87.6%
[17]
  viability, T/C: 109%
[18]
  viability, T/C: 96.4%
[19]
  viability, T/C: 88.2%
[20]
  viability, T/C: 89.8%
[21]
  viability, T/C: 99.9%
[22]
  viability, T/C: 99%
[23]
  viability, T/C: 105%
[24]
  viability, T/C: 97%
[25]
  viability, T/C: 97.1%
[26]
  viability, T/C: 85%
[27]
  viability, T/C: 90.4%
[28]
  viability, T/C: 112%
[29]
  viability, T/C: 101%
[30]
  viability, T/C: 91.9%
[31]
  viability, T/C: 86.7%
[32]
  viability, T/C: 91.4%
[33]
  viability, T/C: 89.6%
[34]
  viability, T/C: 96%
[35]
  viability, T/C: 98.4%
[36]
  viability, T/C: 93.9%
[37]
  viability, T/C: 105%
[38]
  viability, T/C: 80.6%
[39]
  viability, T/C: 85.3%
[40]
  viability, T/C: 101%
[41]
  viability, T/C: 102%
[42]
  viability, T/C: 101%

## COc1ccc([C@@H](O)c2cc(-c3ncnc4cc(N5CCOCC5)ccc34)c(F)cc2Cl)nn1
Compound 0.0316 µM
  viability, T/C: 111% and 87.9% and 88.4%
Compound 0.1 µM
  viability, T/C: 96.7% and 92.9% and 106%
Compound 0.316 µM
  viability, T/C: 94.5% and 88.7% and 79.7%
Compound 1 µM
  viability, T/C: 84.6% and 77.3% and 75%
Compound 3.16 µM
  viability, T/C: 49.6% and 50.5% and 60.4%
Compound 10 µM
  viability, T/C: 23.9% and 19.9% and 19.4%
Curve of compound
  IC50: 3.41 µM and 3.19 µM and 3.96 µM

## CC1COCCN1c1cc(C2(O)CC3CCC(C2)O3)c2cnn(-c3ccn[nH]3)c2n1 (stereo not drawn)
Compound 0.0316 µM
  viability, T/C: 85.2% and 93.5% and 88.1%
Compound 0.1 µM
  viability, T/C: 80.7% and 83.5% and 80%
Compound 0.316 µM
  viability, T/C: 65.9% and 63.9% and 67.3%
Compound 1 µM
  viability, T/C: 56% and 53.3% and 57.5%
Compound 3.16 µM
  viability, T/C: 47.1% and 48.7% and 44.4%
Compound 10 µM
  viability, T/C: 35.8% and 33.2% and 36.5%
Curve of compound
  IC50: 1.99 µM and 1.72 µM and 1.94 µM
